# Laboratory results reported in US5194445A, “Ascorbic acid derivative” (Nippon Hypox Laboratories Incorporated, priority 1989, dated 1993).
# Columns and labels:
# [1] = test system: Rat Liver Microsome; assay: Activity to Inhibit Hyperoxidation of Lipid of Rat Liver Microsome (thiobarbituric acid method); type: biochemical
# Experimental: Activity to Inhibit Hyperoxidation of Lipid of Rat Liver Microsome
# A rat liver microsome was prepared according to a conventional method, and suspended in 1.15% KCl to obtain a microsome suspension.
# The above microsome suspension in an amount equivalent to 2 mg of a protein was added to a tris-HCl buffer (pH 7.4) to which NADPH, ADP and FeCl3 had been added such that the final concentrations were 0.2 mM of NADPH, 1 mM of ADP and 10 μM of FeCl3.
# A dimethylformamide (DMF) solution of each of test compounds in an amount of 10 μl or DMF in an amount of 10 μl was added such that the total amount of each of the mixtures was 1 ml, and then, the mixtures were kept at 37° C. for 20 minutes. In addition, the test compounds were added in such amounts that their final concentrations became 10^-5 M.
# Thereafter, according to a thiobarbituric acid method, the above mixtures were measured for an amount of peroxide lipid formed. The inhibiting activities of the test compounds were compared with that of the group containing the solvent (DMF) alone, and the results were expressed as an inhibition ratio (%).
# [2] = test system: Ventricular Arrhythmia During Coronary Occlusion-Reperfusion in Rat Heart; assay: Activity to Inhibit Ventricular Arrhythmia During Coronary Occlusion-Reperfusion in Rat Heart; type: in vivo, male Wistar rats; details: for Total time of arrhythmia occurrence (second) (mean + S.E.): 10 minutes (600 seconds) observation
# Experimental: Activity to Inhibit Ventricular Arrhythmia During Coronary Occlusion-Reperfusion in Rat Heart
# Five to ten male Wistar rats (weight 230 to 460 g per rat) were used as one group for each of test compounds. Each of the rats was anesthetized with sodium pentobarbital, and electrocardiograms thereof were recorded with standard lead II.
# The rats were subjected to thoracotomy under artificial respiration, and left coronary artery ramus anterior descendenses were ligated for 5 minutes and then perfused.
# In addition, each of test compounds was suspended in a physiological saline containing 1% olive oil and 1% Tween 80, and the resultant suspensions were administered into femoral veins 2 minutes before the coronary occlusion, or orally administered 1 hour before the coronary occlusion, such that the amounts of said compounds were as predetermined.
# When a left coronary artery ramus anterior descendence is occluded for 5 minutes and then reperfused, ventricular arrhythmia typified by ventricular tachycardia (VT) and ventricular fibrillation (VF) occurs.
# [3] = test system: Ischemic Brain Model Mouse; assay: Action on Survival Rate of Ischemic Brain Model Mouse; type: in vivo, ICR male mice; details: oral, 100 mg/kg
# Experimental: Action on Survival Rate of Ischemic Brain Model Mouse
# Thirteen to fifty-six ICR male mice were used as one group for each of test compounds. Each of the mice was anesthetized by intraperitoneal administration of sodium pentobarbital, the bilateral carotid arteries were exposed, a thread was put around the arteries, and the skin was sutured with one end of the thread outside the body.
# Three days after the suture of the skin, the bilateral carotid arteries were ligated for 3 minutes, and then reperfused to obtain ischemic brain model mice. And, a survival rate in each group 24 hours after the ligation-reperfusion of bilateral carotid arteries was determined.
# In addition, each of the test compounds was suspended in a physiological saline containing 1% olive oil and 1% Tween 80, and the suspension was orally administered one hour before the ligation of the bilateral carotid arteries such that the amount of each test compound was 100 mg/kg.
# [4] = test system: CCl4 Liver Dysfunction; assay: Action on CCl4 Liver Dysfunction; type: in vivo, ICR male mice; details: oral
# Experimental: Action on CCl4 Liver Dysfunction
# Fourteen and seventeen ICR male mice were used as one group for each test. Each of the mice was hypodermically administered in its dorsal portion with 10 ml/kg of a solution of 10% CCl4 in olive oil to develop acute hepatitis, and the serum obtained by centrifugation of a blood sample taken from each mouse 48 hours after the administration was measured on GOT (glutamic-oxaloacetic transaminase) activity and GPT (glutamic-pyruvictransaminase) activity with an autoanalyzer (AU550, supplied by Olympus K.K.).
# In addition, the test compound was suspended in physiological saline containing 1% olive oil and 1% Tween 80, and the resultant suspension was orally administered three times in total, immediately after the CCl4 administration and in the morning and evening on the day thereafter, such that the dose of each test compound was 100 mg/kg/one time administration.
# [5] = test system: Ischemic Acute Renal Insufficiency; assay: Action on Ischemic Acute Renal Insufficiency; type: in vivo, male Wistar rats; details: intravenous, 72 hours after reperfusion
# Experimental: Action on Ischemic Acute Renal Insufficiency
# Four male Wistar rats (weight: about 200 g per rat) were used as one group for each test. Each of the rats was anesthetized with sodium pentobarbital, the right kidney was extirpated, and immediately thereafter, 100 IU/kg of heparin was intravenously administered to its tail. Eight minutes after the administration, the left renal artery was ligated with a suture, and 60 minutes after the ligation, and the renal artery was reperfused by unligating the suture to develop ischemic acute renal insufficiency in each of the rats.
# Immediately before the administration of sodium pentobarbital and 72 hours after the reperfusion, blood samples were taken from the tail artery of each rat, and the serums obtained by centrifugation of the sample bloods were respectively measured for a blood urea nitrogen (BUN) amount and a creatinine amount, indices for renal insufficiency, with an autoanalyzer (AU550, supplied by Olympus K.K.).
# In addition, the test compound was suspended in a physiological saline containing 1% olive oil and 1% Tween 80, and the resultant suspension was intravenously administered to the tail of each rat 10 minutes before the administration of sodium pentobarbital or 10 minutes before the reperfusion such that the dose of the test compound was 10 mg/kg or 30 mg/kg.
# [6] = Stability Test; type: physicochemical; details: room temperature, after 24 hours, tris-HCl buffer pH 9.0; read-out: residual content
# Experimental: A tris-HCI buffer having pH of 9.0 was added to each of alcohol solutions of the compounds (Ia2), (Ia3), (IA2) and 2-O-dodecyl ascorbic acid, which was a position isomer of the compound (IA2), in such a manner that the amount of the buffer was 100 times as large as that of each alcohol solution.
# The test compounds in the solutions which were allowed to stand at room temperature were quantitatively determined with time to measure their stability.
# [7] = test system: Mouse; assay: Acute Toxicity Test on Mouse; type: in vivo, Male 3-ICR mice; details: intravenous
# Experimental: Acute Toxicity Test on Mouse
# Male 3-ICR mice (10 weeks of age) were used. The compounds (Ia2), (Ia3) and (IA2) were intravenously administered to the mice in such a manner that the doses of each of the compounds were 30 mg/kg and 100 mg/kg. For one week after the administration, symptoms were observed.
# [8] = 10^-5 M, pH 7.4, 37° C., 20 minutes, versus solvent (DMF) alone, 10 µM
# [9] = 10^-5 M, pH 7.4, 37° C., 20 minutes, versus solvent (DMF) alone; 10 µM
# [10] = 100 mg/kg/one time, three times, serum 48 hours after CCl4
structure (smiles),measurement,setting,value
CCCCCCCCCCCCCCC(=O)COC1=C(O)C(=O)OC1C(O)CO (centres unmarked) [Compound (Ia4)],Lipid hyperoxidation inhibition ratio (%),[1]; [8],65%
"CCCCCCCCCCCCCCCCCCOC1=C(O)C(=O)O[C@@H]1[C@@H](O)CO [(d), reference compound]",Lipid hyperoxidation inhibition ratio (%),[1]; [9],45%
CCCCCCCCCCCCCCCCCCOC(=O)COC1=C(O)C(=O)O[C@@H]1[C@@H](O)CO [Compound (IA6)],Lipid hyperoxidation inhibition ratio (%),[1]; [8],73%
"CCCCCCC(=O)COC1=C(O)C(=O)O[C@@H]1[C@@H](O)CO [(a), reference compound]",Lipid hyperoxidation inhibition ratio (%),[1]; [9],27%
"CCCCCCCCCCCCC(=O)COC1=C(O)C(=O)O[C@@H]1[C@@H](O)CO [Compound (Ia3), 3-O-dodecylcarbonylmethyl ascorbic acid]",Lipid hyperoxidation inhibition ratio (%),[1]; [8],85%
same,Lipid hyperoxidation inhibition ratio (%),"[1]; 10^-5 M, pH 7.4, 37° C., 20 minutes, versus solvent (DMF) alone, 10 µM, listed as Compound (IA3)",81%
same,Total time of arrhythmia occurrence (second) (mean + S.E.),"[2]; i.v., 0.3 mg/kg, 2 minutes before coronary occlusion",471.0 ± 73.6 s
same,Total time of arrhythmia occurrence (second) (mean + S.E.),"[2]; i.v., 1 mg/kg, 2 minutes before coronary occlusion",216.1 ± 59.6 s
same,Total time of arrhythmia occurrence (second) (mean + S.E.),"[2]; i.v., 3 mg/kg, 2 minutes before coronary occlusion",273.5 ± 93.8 s
same,Total time of arrhythmia occurrence (second) (mean + S.E.),"[2]; i.v., 10 mg/kg, 2 minutes before coronary occlusion",203.8 ± 91.0 s
same,Total time of arrhythmia occurrence (second) (mean + S.E.),"[2]; i.v., 30 mg/kg, 2 minutes before coronary occlusion",150.5 ± 79.8 s
same,inhibition of occurrence of arrhythmia,"[2]; intravenously, not less than 1 mg/kg",same significant inhibition
same,inhibition of occurrence of arrhythmia,"[2]; orally, not less than 10 mg/kg",same significant inhibition
same,Total time of arrhythmia occurrence (second) (mean + S.E.),"[2]; p.o., 10 mg/kg, 1 hour before coronary occlusion",378.2 ± 61.4 s
same,Total time of arrhythmia occurrence (second) (mean + S.E.),"[2]; p.o., 30 mg/kg, 1 hour before coronary occlusion",313.3 ± 81.7 s
same,Total time of arrhythmia occurrence (second) (mean + S.E.),"[2]; p.o., 100 mg/kg, 1 hour before coronary occlusion",85.4 ± 28.9 s
same,Total time of arrhythmia occurrence (second) (mean + S.E.),"[2]; p.o., 300 mg/kg, 1 hour before coronary occlusion",123.6 ± 43.7 s
same,Survival rate (%),"[3]; one hour before ligation, 24 hours after ligation-reperfusion of bilateral carotid arteries",80.0%
same,survival rate versus vehicle group,[3]; 24 hours after ligation-reperfusion,significantly higher
same,GOT activity value,[4]; 100 mg/kg,significantly reduced
same,GPT activity value,[4]; 100 mg/kg,significantly reduced
same,GOT activity (mean ± S.E),[4]; [10],445.0 ± 69.0 Unit/1
same,GPT activity (mean ± S.E),[4]; [10],"1,406.4 ± 185.2 Unit/1"
same,BUN amount (mean ± S.E.),[5]; 10 mg/kg,33.8 ± 6.1 mg/dL
same,Creatinine amount (mean ± S.E.),[5]; 10 mg/kg,0.93 ± 0.05 mg/dL
same,BUN amount (mean ± S.E.),[5]; 30 mg/kg,34.1 ± 8.9 mg/dL
same,Creatinine amount (mean ± S.E.),[5]; 30 mg/kg,1.04 ± 0.12 mg/dL
same,BUN amount versus vehicle group,[5]; 10 or 30 mg/kg,significantly smaller
same,creatinine amount versus vehicle group,[5]; 10 or 30 mg/kg,significantly smaller
same,remaining at 24 h,[6],≥ 80%
same,death during observation for one week,[7]; 30 mg/kg,no death was found
same,death during observation for one week,[7]; 100 mg/kg,no death was found
"CCCCCCCCOC1=C(O)C(=O)O[C@@H]1[C@@H](O)CO [(c), reference compound]",Lipid hyperoxidation inhibition ratio (%),[1]; [9],40%
CCCCCCCCCCOC(=O)COC1=C(O)C(=O)O[C@@H]1[C@@H](O)CO [Compound (IA5)],Lipid hyperoxidation inhibition ratio (%),[1]; [8],72%
"CCCCCCCCCCCCCCCCC(=O)COC1=C(O)C(=O)O[C@@H]1[C@@H](O)CO [(b), reference compound]",Lipid hyperoxidation inhibition ratio (%),[1]; [9],43%
